From ChEMBL document CHEMBL4765466, “Recent Advances in the Development of PD-L1 Modulators: Degraders, Downregulators, and Covalent Inhibitors” (J Med Chem, 2020) come the findings set out here.

The data set in a line: Lipophilicity, log P of the compound. To be noted: octanol/water. It counts as physicochemical.

The logP is a log measure of how a compound divides between an organic and an aqueous phase. Lower therefore signals lower lipophilicity. As to `COc1nc(OCc2cccc(-c3ccccc3)c2C)ccc1CNCCNC(C)=O`, the log partition coefficient (logP) stood at 4.4.
